Values of other authors as cited in patent US12582625B2, “Methods for treating neuroblastoma” (priority 2015, dated 2026).

Tested on: tumors harboring Ki-ras mutations
Settings: AOM-treated rats, reduced from 90% (Singh et al., 1994); cited from earlier work

NCCCC(N)(C(=O)O)C(F)F (stereo not shown) [DFMO, 2,5-diamino-2-(difluoromethyl) pentanoic acid]
tumors harboring Ki-ras mutations: 36%
